Biological target: T1, human P2X2 receptor (hP2X2R) (Homo sapiens, UniProt Q9UBL9)
T1 construct: gene P2RX2; full-length wild-type
T1 sequence (Q9UBL9 1-471): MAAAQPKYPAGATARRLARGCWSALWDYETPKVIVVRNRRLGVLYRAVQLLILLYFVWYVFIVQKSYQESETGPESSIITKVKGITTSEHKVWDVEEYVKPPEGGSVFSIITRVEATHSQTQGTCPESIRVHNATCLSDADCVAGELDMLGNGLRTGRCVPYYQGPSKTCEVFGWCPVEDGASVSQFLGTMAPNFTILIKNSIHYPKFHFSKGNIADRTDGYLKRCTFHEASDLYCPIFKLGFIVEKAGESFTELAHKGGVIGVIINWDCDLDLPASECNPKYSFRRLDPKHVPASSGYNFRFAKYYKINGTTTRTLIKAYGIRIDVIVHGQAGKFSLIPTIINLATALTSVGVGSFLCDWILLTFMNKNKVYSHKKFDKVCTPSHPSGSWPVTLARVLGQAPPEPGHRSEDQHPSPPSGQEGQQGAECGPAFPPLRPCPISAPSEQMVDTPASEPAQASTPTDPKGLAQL
Experiment: cryo-EM structures of ATP-bound homotrimer ([…] and […] Å); EC50 by two-electrode voltage clamp in Xenopus oocytes (divalent-free)
Format: cell-based

## Nc1ncnc2c1ncn2[C@@H]1O[C@H](COP(=O)(O)OP(=O)(O)OP(=O)(O)O)[C@@H](O)[C@H]1O [ATP]
  EC50: 156 ± 96 nM
